Laboratory results from patent US4997757A, “Process for detecting potential carcinogens” (GeneBioMed, Inc., priority 1988, dated 1991).
Read-outs that look alike come from different tables or passages of the source.

Tests used:
[1] = survival of yeast exposed to agent; type: cell-based, Saccharomyces cerevisiae
Text: (§1) It is preferred to conduct a preliminary experiment to determine those concentrations of the agent to be tested which should be evaluated in the main experiment. Yeast cells are exposed to a wide range of concentrations of the agent to be tested to determine its cytotoxicity.
(§2) It is preferred that, when the cells are to be grown in the presence of the agent, logarithmic phase cultures are used. In one embodiment, for each of the test strains, a cell suspension of 2×10^6 cells per milliliter-LEU medium be prepared from a logarithmic phase culture pregrown in liquid-LEU medium. The whole mix is aliquoted into portions of 5 milliliter into disposable plastic tubes in the presence of the agent to be tested, the tubes are sealed and shaken continuously for 17 hours.
(§3) The strain used in this example was RS112 which was obtained by crossing strain RSY6 with strain 428. RSY6 contains the SCC system and was deposited at November 30 under "ATCC designation number 20871" with the American Type Culture Collection of 12301 Parklawn Drive, Rockville, Md. 20852. Strain 428 was obtained from M. Snyder, Department of Biology, at Yale University, New Haven, Conn. and was used because it contains the mutation his3Δ-200, the construction of which has been described in an article by Struhl entitled "Naturally occurring poly(dA-dT) sequences are upstream promoter elements of constitutive transcription in yeast, published in Proc. Natl. Acad. Sci. USA 82 on pages 8419-8423. Strains containing the his3Δ-200 mutation are readily available to those skilled in the art.

[2] = test system: strain RS112 (heteroalleles ade2-40 and ade2-101); assay: ICC (interchromosomal gene conversion) between heteroalleles ade2-40 and ade2-101; type: cell-based, Saccharomyces cerevisiae; conditions: for ICC/10^5 cells: strain RS112
Procedure: as §2, §3
Strain RS112 has the following genotype: [drawing 2]
Values for the intrachromosomal recombination system between deletion alleles of his3 are designated as SCC. Also strain RS112 contained heteroallelic mutations in ade2 so that the frequency of interchromosomal gene conversion (ICC) between heteroalleles in a diploid was determined. ICC was measured as recombination between the heteroalleles ade2-40 and ade2-101 by selecting for ADE+. Values obtained are given to compare the performance of the two systems.
The frequencies for ICC are given in events per 10^5 survivals, and the frequencies for SCC are given in events per 10^4 survivals. It has to be noted that for sister chromatid recombination in mammalian cells the increase even with potent carcinogens is usually less than ten fold and also slight increases have been taken as positive results. For instance an increase in frequency of two fold has been taken to be significant; see a publication by Rudiger et al. entitled "Metabolites of diethylstilbestrol induce sister chromatid exchange in human cultured fibroblasts." published in Nature 281:392-394).

[3] = test system: strain RS112 (his3 deletion alleles); assay: SCC (sister chromatid conversion) intrachromosomal recombination system, deletion alleles of his3; type: cell-based, Saccharomyces cerevisiae; conditions: for SCC/10^4 cells: strain RS112
Text: (§4) In the most preferred embodiment it is preferable to grow the cells in a medium which selects against the occurrence of the genome rearrangement to keep the control values as low as possible. In the embodiment described in FIG. 1 it is shown that the LEU2 gene of construct 10 is lost after the genome rearrangement which results in construct 22. Therefore cells containing construct 10, before the rearrangement are able to grow in the absence of leucine in the medium, but cells containing construct 22, after the genome rearrangement are not able to grow in the absence of leucine. After the genome rearrangement cells containing construct 22 are able to grow in the absence of histidine in the medium, but cells containing construct 10 before the genome rearrangement are not able to grow in the absence of histidine. Therefore the selection scheme which was used for Example 3 involves growth of the yeast culture in medium lacking leucine but containing histidine before and during the exposure to the potential carcinogens or other test agents. After the exposure the cells which have undergone genome rearrangement are selected on medium lacking histidine but containing leucine.
as §2
(§5) After the yeast cells have been exposed to both the agent to be tested and the selection medium under the conditions of the test and have been incubated for some time period of about more than one day preferably at 30 degrees Celsius or any other temperature which allows growth of the yeast cells used, the number of colonies formed by cells which have undergone genome rearrangement are counted and compared with the number of colonies of yeast cells identical in substantially every respect with the exception of not having been exposed to the suspected carcinogenic agent. The rates of genome rearrangement for both the control and experimental samples are then compared.
(§6) Plasmids were constructed as substrates to study intrachromosomal recombination; see an earlier part of the specification and Example 1. The plasmids pRS6 (FIG. 7, construct 108) and pRS11 (FIG. 9, construct 118) both contained an internal fragment of the HIS3 gene as well as one selectable marker (LEU2). pRS11 in addition contained the 2 μm origin of replication to select for the presence of the plasmid after plasmid excision. pRS11FRT-had the FLP recombination site disrupted (see Example 1). Yeast strains RSY6 containing construct 10, RSY11 containing construct 118 and RSY11FRT- (see Example 1) were used. They contained the respective pRS plasmids integrated into the HIS3 gene of strain S35/2-10C giving rise to disruptions of the HIS3 gene construct 10 or analogs to it (FIG. 10). The two resulting his3 deletion alleles (FIG. 10) shared about 400 basepairs of homology and thus could interact with each other by homologous recombination. Reversion of his- to HIS+ occurred at a frequency of about 4×10^-4 in all three strains. All of 100 tested HIS+ revertants of strain RSY6 were leu-. Because of this observation strains used for recombination studies were always pregrown on -LEU medium to prevent growth of HIS+ revertants. Therefore the frequency of HIS+ revertants is a measure of the recombination rate.
(§7) The strain used in this example was RS112 which was obtained by crossing strain RSY6 with strain 428. RSY6 contains the SCC system and was deposited at November 30 under "ATCC designation number 20871" with the American Type Culture Collection of 12301 Parklawn Drive, Rockville, Md. 20852. […]

[4] = as above; type: cell-based, Saccharomyces cerevisiae; conditions: yeast strain rs112; versus untreated control; read-out: induction for SCC / increase in SCC
Text: as §4, §2, §5, §6, §7

[5] = test system: rats; conditions: cited from earlier work
[6] = cited from earlier work; for carcinogenicity: in vivo
[7] = test system: Salmonella typhimurium; conditions: cited from earlier work
[8] = test system: mammalian cells; conditions: cited from earlier work
[9] = test system: mice; conditions: cited from earlier work
[10] = test system: mammalian cells; conditions: cited from earlier work; remark: listed apart in the source
[11] = test system: strain RS112; assay: survival of yeast exposed to agent; type: cell-based, Saccharomyces cerevisiae; conditions: 1020 min
Text: as §1, §2, §3

CCOS(C)(=O)=O [EMS, ethyl methanesulphonate]
viability at 17 h ([1]; yeast strain rs112, 0.02 %): 98%
viability at 17 h ([1]; yeast strain rs112, 0.1 %): 91%
viability at 17 h ([1]; yeast strain rs112, 0.2 %): 37%
ICC result in words [2]: inducible
ICC/10^5 cells ([2]; 0.02 %): 1.3 /10^5 cells
ICC/10^5 cells ([2]; 0.1 %): 15.8 /10^5 cells
ICC/10^5 cells ([2]; 0.2 %): 28.9 /10^5 cells
SCC result in words [3]: inducible
SCC/10^4 cells ([3]; 0.02 %): 4.1 /10^4 cells
SCC/10^4 cells ([3]; 0.1 %): 18.1 /10^4 cells
SCC/10^4 cells ([3]; 0.2 %): 25.3 /10^4 cells
fold induction [4]: 20 to 150

C=CCc1ccc(O)c(OC)c1 [eugenol]
SCC result in words [3]: test positive

C=O [Formaldehyde]
viability at 17 h ([1]; yeast strain rs112, 0.015 mg/ml): 97%
viability at 17 h ([1]; yeast strain rs112, 0.03 mg/ml): 53%
viability at 17 h ([1]; yeast strain rs112, 0.05 mg/ml): 4.2%
viability at 17 h ([1]; yeast strain rs112, 0.07 mg/ml): 2.2%
carcinogenicity [5]: causes nasal cancer in rats
carcinogenicity [6]: known carcinogen
tumor promotion ([6]; proposed): proposed to act as tumor promoter
ICC result in words [2]: induces ICC
ICC/10^5 cells ([2]; 0.015 mg/ml): 2.5 /10^5 cells
ICC/10^5 cells ([2]; 0.03 mg/ml): 2.1 /10^5 cells
ICC/10^5 cells ([2]; 0.05 mg/ml): 5.4 /10^5 cells
ICC/10^5 cells ([2]; 0.07 mg/ml): 7.1 /10^5 cells
Ames Assay result [7]: negative
SCC result in words [3]: test positive
SCC/10^4 cells ([3]; 0.015 mg/ml): 3.8 /10^4 cells
SCC/10^4 cells ([3]; 0.03 mg/ml): 7.3 /10^4 cells
SCC/10^4 cells ([3]; 0.05 mg/ml): 29.5 /10^4 cells
SCC/10^4 cells ([3]; 0.07 mg/ml): 40.0 /10^4 cells
fold induction [4]: ~20

CCOC(N)=O [Urethane]
chromosomal aberration assay result [8]: negative
carcinogenicity [9]: very effective in producing lung as well as skin tumors in mice
viability at 17 h ([1]; yeast strain rs112, 10 mg/ml): 107%
viability at 17 h ([1]; yeast strain rs112, 20 mg/ml): 51%
viability at 17 h ([1]; yeast strain rs112, 40 mg/ml): 10%
carcinogenicity [6]: known carcinogens
ICC/10^5 cells ([2]; 10 mg/ml): 0.66 /10^5 cells
ICC/10^5 cells ([2]; 20 mg/ml): 0.40 /10^5 cells
ICC/10^5 cells ([2]; 40 mg/ml): 0.78 /10^5 cells
Ames Assay result [7]: negative
SCE assay result [10]: negative
SCC/10^4 cells ([3]; 10 mg/ml): 1.9 /10^4 cells
SCC/10^4 cells ([3]; 20 mg/ml): 4.8 /10^4 cells
SCC/10^4 cells ([3]; 40 mg/ml): 5.3 /10^4 cells

CCSCC[C@H](N)C(=O)O [Ethionine]
chromosomal aberration assay result [8]: negative
viability at 17 h ([1]; yeast strain rs112, 10 mg/ml): 79%
viability at 17 h ([1]; yeast strain rs112, 20 mg/ml): 67%
carcinogenicity [6]: liver carcinogen
carcinogenicity ([6]; listed as ethionine): known carcinogens
ICC/10^5 cells ([2]; 10 mg/ml): 0.77 /10^5 cells
ICC/10^5 cells ([2]; 20 mg/ml): 0.80 /10^5 cells
Ames Assay result [7]: negative
SCE assay result [10]: negative
SCC/10^4 cells ([3]; 10 mg/ml): 4.8 /10^4 cells
SCC/10^4 cells ([3]; 20 mg/ml): 5.4 /10^4 cells

O=[N+]([O-])c1cc[n+]([O-])c2ccccc12 [NQO, 4-nitroquinoline-N-oxide]
viability at 17 h ([1]; yeast strain rs112, 0.1 μg/ml): 84%
viability at 17 h ([1]; yeast strain rs112, 0.5 μg/ml): 74%
viability at 17 h ([1]; yeast strain rs112, 2 μg/ml): 13.3%
ICC result in words [2]: inducible
ICC/10^5 cells ([2]; 0.1 μg/ml): 57.4 /10^5 cells
ICC/10^5 cells ([2]; 0.5 μg/ml): 93 /10^5 cells
ICC/10^5 cells ([2]; 2 μg/ml): 106 /10^5 cells
SCC result in words [3]: inducible
SCC/10^4 cells ([3]; 0.1 μg/ml): 16.9 /10^4 cells
SCC/10^4 cells ([3]; 0.5 μg/ml): 19.0 /10^4 cells
SCC/10^4 cells ([3]; 2 μg/ml): 55.6 /10^4 cells
fold induction [4]: 20 to 150

COS(C)(=O)=O [MMS, methyl methane sulphonate]
viability at 17 h ([1]; yeast strain rs112, 0.001 %): 100%
viability at 17 h ([1]; yeast strain rs112, 0.005 %): 97%
viability at 17 h ([1]; yeast strain rs112, 0.01 %): 87%
viability at 17 h ([1]; yeast strain rs112, 0.02 %): 35%
ICC result in words [2]: inducible
ICC/10^5 cells ([2]; 0.001 %): 1.9 /10^5 cells
ICC/10^5 cells ([2]; 0.005 %): 14.4 /10^5 cells
ICC/10^5 cells ([2]; 0.01 %): 42.3 /10^5 cells
ICC/10^5 cells ([2]; 0.02 %): 62 /10^5 cells
SCC result in words [3]: inducible
SCC/10^4 cells ([3]; 0.001 %): 3.9 /10^4 cells
SCC/10^4 cells ([3]; 0.005 %): 11.4 /10^4 cells
SCC/10^4 cells ([3]; 0.01 %): 46.6 /10^4 cells
SCC/10^4 cells ([3]; 0.02 %): 129 /10^4 cells
fold induction [4]: 20 to 150

Cc1c(N)c(=O)n(-c2ccccc2)n1C [Aminoantipyrine]
chromosomal aberration assay result [8]: negative
carcinogenicity [9]: bladder carcinogen
survival ([11]; 10 mg/ml): 97%
survival ([11]; 20 mg/ml): 73.3%
survival ([11]; 40 mg/ml): 0.89%
carcinogenicity [6]: known carcinogens
ICC/10^5 cells ([2]; 10 mg/ml): 0.75 /10^5 cells
ICC/10^5 cells ([2]; 20 mg/ml): 1.8 /10^5 cells
Ames Assay result [7]: negative
SCE assay result [10]: negative
SCC/10^4 cells ([3]; 10 mg/ml): 1.02 /10^4 cells
SCC/10^4 cells ([3]; 20 mg/ml): 1.80 /10^4 cells
SCC/10^4 cells ([3]; 40 mg/ml): 25.8 /10^4 cells
